# Data published in patent US5021421A, “2-(1-Piperazinyl)-4-phenylcycloalkanopyridine derivatives, processes for the production thereof, and pharmaceutical composition containing the same” (Dainippon Pharmaceutical Co., Ltd., priority 1989, dated 1991).
# Where a name gives a salt, the structure may show the parent alone. Read-outs that look alike come from different tables or passages of the source.
# Assays:
# [1] = tested on: apomorphine-induced vomiting; assay: Antagonistic effect on apomorphine-induced vomiting; format: in vivo, dogs (Beagle); conditions: Canis lupus familiaris, sc, apomorphine 0.3 mg/kg s.c. 2 h after compound, read-out: Inhibitory ratio (apomorphine-induced vomiting)
# Experimental: A group of 3-4 dogs (Beagle, 8-15 kg) was used for examining effects on the test compounds on apomorphine-induced vomiting, a known test for evaluating neuroleptic drugs.
# Each dog was given a subcutaneous injection of apomorphine hydrochloride (0.3 mg/kg) two hours after the treatment of the test compounds. Then, the frequency of oral vomiting was counted for one hour. The mean counts of the compound-treated group were compared with those of the corresponding control (non-dosed) group, and the percent inhibition was calculated.
# [2] = tested on: brain monoamine metabolites; assay: Increasing effect on concentration of brain monoamine metabolites; format: in vivo, mice (Std-ddy strain); conditions: Mus musculus, 2 h, non-dosed=100
# Experimental: A group of 5 male mice (Std-ddy strain, 25-30 g) was used for examining effect of the test compounds on concentration of brain monoamine metabolites.
# Mice were killed by decapitation 2 hours after treatment with the test compounds. Brains were quickly taken out, homogenized in 1N formic acid-acetone solution, and centrifuged in a refrigerated ultracentrifuge. The supernatant was evaporated by blowing with N2 gas. Then, the residue was again resolved in 0.01 N acetic acid, and served for determining concentration of dopamine metabolites, 3,4-dihydroxyphenylacetic acid (DOPAC) and homovanillic acid (HVA), a norepinephrine metabolite, 3-methyl-4-hydroxyphenylethylene glycol (MOPEG), and a serotonin metabolite, 5-hydroxyindole-3-acetic acid (5-HIAA) concentrations by HPLC with electrochemical detection. The effect of the test compounds on concentration of each monoamine metabolite is shown as % of control (level of non-dosed animals=100) in Table 4.
# [3] = read-out: DOPAC concentration, % of control
# [4] = read-out: HVA concentration, % of control
# [5] = read-out: 5-HIAA concentration, % of control
# [6] = read-out: MOPEG concentration, % of control
smiles,measurement,setting,value
"COCCN1CCN(c2cc(-c3ccc(F)cc3)c3c(n2)CCCCCC3)CC1 [Example 82, 2-[4-(2-Methoxyethyl)-1-piperazinyl]-4-(4-fluorophenyl)-5,6,7,8,9,10-hexahydrocycloocta[b]pyridine dimaleate]",inhibition in vivo at 1 mg/kg,[1],100%
"CC1CN(c2cc(-c3ccc(F)cc3)c3c(n2)CCCCCC3)CCN1C (stereo not shown) [Example 116, 2-(3,4-Dimethyl-1-piperazinyl)-4-(4-fluorophenyl)-5,6,7,8,9,10-hexahydrocycloocta[b]pyridine fumarate 1/4 hydrate]",inhibition in vivo at 1 mg/kg,[1],100%
"OCCCN1CCN(c2cc(-c3ccc(F)cc3)c3c(n2)CCCCCC3)CC1 [Example 138, 2-[4-(3-hydroxypropyl)-1-piperazinyl]-4-(4-fluorophenyl)-5,6,7,8,9,10-hexahydrocycloocta[b]pyridine]",response vs control in vivo at 2 mg/kg,[2]; [3],236%
same,response vs control in vivo at 2 mg/kg,[2]; [4],173%
"CCN1CCN(c2cc(-c3ccc(F)cc3F)c3c(n2)CCCCC3)CC1 [Example 131, 2-(4-ethyl-1-piperazinyl)-4-(2,4-difluorophenyl)-6,7,8,9-tetrahydro-5H-cyclohepta[b]pyridine]",response vs control in vivo at 1 mg/kg,[2]; [3],319%
same,response vs control in vivo at 1 mg/kg,[2]; [4],224%
CCN1CCN(c2cc(-c3ccc(F)cc3)c3c(n2)CCCCCCC3)CC1 [Example 56],inhibition in vivo at 0.5 mg/kg,[1]; dose 0.5 mg/kg,85%
same,response vs control in vivo at 10 mg/kg,[2]; [5],110%
same,response vs control in vivo at 10 mg/kg,[2]; [3],302%
same,response vs control in vivo at 10 mg/kg,[2]; [4],249%
same,response vs control in vivo at 10 mg/kg,[2]; [6],106%
Cc1ccc(-c2cc(N3CCN(CCO)CC3)nc3c2CCCCCC3)cc1 [Example 52],response vs control in vivo at 10 mg/kg,[2]; [3],233%
same,response vs control in vivo at 10 mg/kg,[2]; [4],216%
"CC1CN(c2cc(-c3ccc(F)cc3)c3c(n2)CCCCCC3)CC(C)N1 (stereo not shown) [Example 84, 2-(3,5-Dimethyl-1-piperazinyl)-4-(4-fluorophenyl)-5,6,7,8,9,10-hexahydrocycloocta[b]pyridine 1/2 fumarate]",response vs control in vivo at 10 mg/kg,[2]; [3],237%
same,response vs control in vivo at 10 mg/kg,[2]; [4],216%
"CCCN1CCN(c2cc(-c3ccc(F)cc3)c3c(n2)CCCCCC3)CC1 [Example 118, 2-(4-n-propyl-1-piperazinyl)-4-(4-fluorophenyl)-5,6,7,8,9,10-hexahydrocycloocta[b]pyridine]",inhibition in vivo at 0.3 mg/kg,[1],94%
same,response vs control in vivo at 3 mg/kg,[2]; [5],110%
same,response vs control in vivo at 3 mg/kg,[2]; [3],302%
same,response vs control in vivo at 3 mg/kg,[2]; [4],250%
same,response vs control in vivo at 3 mg/kg,[2]; [6],129%
"OCCN1CCN(c2cc(-c3ccc(F)cc3)c3c(n2)CCCCCC3)CC1 [Example 37, 2-[4-(2-Hydroxyethyl)-1-piperazinyl]-4-(4-fluorophenyl)-5,6,7,8,9,10-hexahydrocycloocta[b]pyridine]",inhibition in vivo at 0.3 mg/kg,[1],80%
same,response vs control in vivo at 3 mg/kg,[2]; [5],95%
same,response vs control in vivo at 3 mg/kg,[2]; [3],268%
same,response vs control in vivo at 3 mg/kg,[2]; [4],203%
same,response vs control in vivo at 3 mg/kg,[2]; [6],143%
CCN1CCN(c2cc(-c3cccc(F)c3)c3c(n2)CCCCCC3)CC1 [Example 42],response vs control in vivo at 10 mg/kg,[2]; [3],258%
same,response vs control in vivo at 10 mg/kg,[2]; [4],211%
Fc1ccc(-c2cc(N3CCN(C4CCCCC4)CC3)nc3c2CCCCCC3)cc1 [Example 39],response vs control in vivo at 10 mg/kg,[2]; [5],97%
same,response vs control in vivo at 10 mg/kg,[2]; [3],307%
same,response vs control in vivo at 10 mg/kg,[2]; [4],233%
same,response vs control in vivo at 10 mg/kg,[2]; [6],117%
"Fc1ccc(-c2cc(N3CCNCC3)nc3c2CCCCCC3)cc1 [Example 104, 2-(1-piperazinyl)-4-(4-fluorophenyl)-5,6,7,8,9,10-hexahydrocycloocta[b]pyridine]",response vs control in vivo at 10 mg/kg,[2]; [5],97%
same,response vs control in vivo at 10 mg/kg,[2]; [3],344%
same,response vs control in vivo at 10 mg/kg,[2]; [4],247%
same,response vs control in vivo at 10 mg/kg,[2]; [6],160%
OCCN1CCN(c2cc(-c3ccc(F)cc3)c3c(n2)CCCCC3)CC1 [Example 26],response vs control in vivo at 10 mg/kg,[2]; [3],344%
same,response vs control in vivo at 10 mg/kg,[2]; [4],263%
CCN1CCN(c2cc(-c3c(F)cccc3F)c3c(n2)CCCCCC3)CC1 [Example 55],response vs control in vivo at 2 mg/kg,[2]; [3],379%
same,response vs control in vivo at 2 mg/kg,[2]; [4],240%
"C[C@@H]1CN(c2cc(-c3ccc(F)cc3)c3c(n2)CCCCCC3)C[C@H](C)N1C [Example 117, 2-(cis-3,5-Dimethyl-4-methyl-1-piperazinyl)-4-(4-fluorophenyl)-5,6,7,8,9,10-hexahydrocycloocta[b]pyridine fumarate]",response vs control in vivo at 10 mg/kg,[2]; [5],100%
same,response vs control in vivo at 10 mg/kg,[2]; [3],242%
same,response vs control in vivo at 10 mg/kg,[2]; [4],210%
same,response vs control in vivo at 10 mg/kg,[2]; [6],133%
